According to patent US20140249135A1, “PIM KINASE INHIBITORS AND METHODS OF THEIR USE” (NOVARTIS AG, priority 2007, published 2014):
Read-outs that look alike come from different tables or passages of the source.

Tests used:
Pim3 kinase = Pim3 kinase (Homo sapiens, UniProt Q86V86); assay: Pim3 ATP depletion assay; type: biochemical
HEL 92.1.7 cells = assay: Cell proliferation assay (CellTiter-Glo), HEL 92.1.7; type: cell-based; conditions: Homo sapiens
Method: HEL 92.1.7 cells (ATTC No. TIB-180, an erythroleukemia line derived from malignant peripheral blood), MV4-11 cells (ATCC No. CRL-9591, a human acute monocytic leukemia line) and PC3 cells (ATCC No. CRL-1435, a human prostatic adenocarcinoma line) were cultured in RPMI1640 supplemented with 10% FBS, sodium pyruvate and antibiotics. Cells were plated in the same medium at a density of 1000 cells per well into 96 well tissue culture plates, with outside wells vacant, on the day of assay.
Test compounds supplied in DMSO were diluted into DMSO at 500 times the desired final concentrations before dilution into culture media to 2 times final concentrations. Equal volumes of 2× compounds were added to the cells in 96 well plates and incubated at 37° C. for 3 days.
After 3 days plates were equilibrated to room temperature and equal volume of CellTiter-Glow Reagent (Promega) was added to the culture wells. The plates were agitated briefly and luminescent signal was measured with luminometer. The percent inhibition of the signal seen in cells treated with DMSO alone vs. cells treated with control compound was calculated and used to determine EC50 values (i.e., the concentration of a test compound that is required to obtain 50% of the maximum effect in the cells) for tested compounds, as shown in Example 763.

Pim1 kinase = Pim1 kinase (Homo sapiens, UniProt P11309); assay: Pim1 ATP depletion assay; type: biochemical; conditions: Pim1 ATP depletion assay;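 further: Luciferase-luciferin luminescence readout of residual ATP after PIM1 transfers phosphate to a peptide substrate, 40 µM ATP added, reaction run to roughly half ATP consumption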
Pim1 kinase, sequence (P11309 whole entry): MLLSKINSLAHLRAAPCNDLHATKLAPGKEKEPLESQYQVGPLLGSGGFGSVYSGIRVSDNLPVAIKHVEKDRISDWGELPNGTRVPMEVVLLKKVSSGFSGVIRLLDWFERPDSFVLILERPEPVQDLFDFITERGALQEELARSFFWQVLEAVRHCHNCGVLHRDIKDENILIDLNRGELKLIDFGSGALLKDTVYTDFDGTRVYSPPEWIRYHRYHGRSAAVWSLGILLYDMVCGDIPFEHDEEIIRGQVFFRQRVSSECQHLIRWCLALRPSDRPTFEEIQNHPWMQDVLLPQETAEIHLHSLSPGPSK

Pim2 kinase = Pim2 kinase (Homo sapiens, UniProt Q9P1W9); assay: Pim2 ATP depletion assay; type: biochemical;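 further: Luciferase-based luminescent readout of ATP remaining after PIM2 phosphorylates a BAD peptide, final 5 nM enzyme, 4 µM ATP, 10 µM peptide, 2.5% DMSO, run to roughly half ATP consumption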
Pim2 kinase, sequence (Q9P1W9 whole entry): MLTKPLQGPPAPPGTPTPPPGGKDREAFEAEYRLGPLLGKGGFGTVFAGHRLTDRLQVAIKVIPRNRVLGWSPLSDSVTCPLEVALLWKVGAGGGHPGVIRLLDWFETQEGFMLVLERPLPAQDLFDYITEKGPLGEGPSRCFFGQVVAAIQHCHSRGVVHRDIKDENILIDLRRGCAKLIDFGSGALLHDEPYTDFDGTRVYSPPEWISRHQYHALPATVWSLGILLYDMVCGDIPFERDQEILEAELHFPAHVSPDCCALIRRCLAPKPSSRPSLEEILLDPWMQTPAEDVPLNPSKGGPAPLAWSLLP

SMILES | IC50 (Pim3 kinase; read-out: IC50 (μM) PIM3) | EC50 (HEL 92.1.7 cells; read-out: EC50 (μM) HEL 92.1.7) | IC50 (Pim1 kinase; read-out: IC50 (μM) PIM1) | IC50 (Pim2 kinase; read-out: IC50 (μM) PIM2) | IC50 (Pim3 kinase; read-out: PIM3 IC50) | EC50 (HEL 92.1.7 cells; read-out: HEL 92.1.7 EC50) | IC50 (Pim1 kinase; read-out: PIM1 IC50) | IC50 (Pim2 kinase; read-out: PIM2 IC50)
CCNC(=O)c1ccc(F)c(-c2ccc(N)c(C(=O)Nc3cnccc3N3CCC[C@H](N)C3)n2)c1 [Example 327, 3-amino-6-(5-ethylcarbamoyl-2-fluoro-phenyl)-pyridine-2-carboxylic acid ((S)-3-amino-3,4,5,6-tetrahydro-2H-[1,4′]bi-pyridinyl-3′-yl)-amide] | < 1 µM | 1 to 5 µM | < 1 µM | < 1 µM |  |  |  | 
Cc1cc(F)ccc1-c1ccc(N)c(C(=O)Nc2cnccc2N2CCC[C@H](N)C2)n1 [Example 430, 3-amino-6-(4-fluoro-2-methyl-phenyl)-pyridine-2-carboxylic acid ((S)-3-amino-3,4,5,6-tetra-hydro-2H-[1,4′]bipyridinyl-3′-yl)-amide] | < 1 µM | 1 to 5 µM | < 1 µM | < 1 µM |  |  |  | 
COC(=O)c1ccc(-c2ccc(N)c(C(=O)Nc3cnccc3N3CCC[C@H](N)C3)n2)c(F)c1 [Example 325, 4-[5-amino-6-((S)-3-amino-3,4,5,6-tetrahydro-2H-[1,4′]bi-pyridinyl-3′-ylcarbamoyl)-pyridin-2-yl]-3-fluoro-benzoic acid methyl ester] | < 1 µM | 1 to 5 µM | < 1 µM | < 1 µM |  |  |  | 
Cc1ccc(S(=O)(=O)N2CCCC2)cc1-c1ccc(N)c(C(=O)Nc2cnccc2N2CCC[C@H](N)C2)n1 [Example 321, 3-amino-6-[2-methyl-5-(pyrrolidine-1-sulfonyl)-phenyl]-pyridine-2-carboxylic acid ((S)-3-amino-3,4,5,6-tetrahydro-2H-[1,4′]bi-pyridinyl-3′-yl)-amide] | < 1 µM | 1 to 5 µM | < 1 µM | < 1 µM |  |  |  | 
COc1ncccc1-c1ccc(N)c(C(=O)Nc2cnccc2N2CCC[C@H](N)C2)n1 [Example 423, 5-amino-2′-methoxy-[2,3′]bi-pyridinyl-6-carboxylic acid ((S)-3-amino-3,4,5,6-tetrahydro-2H-[1,4′]bipyridinyl-3′-yl)-amide] | < 1 µM | 1 to 5 µM | < 1 µM | < 1 µM |  |  |  | 
Cc1ccc(S(=O)(=O)N(C)C)cc1-c1ccc(N)c(C(=O)Nc2cnccc2N2CCC[C@H](N)C2)n1 [Example 330, 3-amino-6-(5-dimethyl-sulfamoyl-2-methyl-phenyl)-pyridine-2-carboxylic acid ((S)-3-amino-3,4,5,6-tetra-hydro-2H-[1,4′]bipyridinyl-3′-yl)-amide] | < 1 µM | > 10 µM | < 1 µM | < 1 µM |  |  |  | 
COc1ccccc1-c1ccc(N)c(C(=O)Nc2cnccc2N2CCC[C@H](N)C2)n1 [Example 337] | < 1 µM | 5 to 10 µM | < 1 µM | < 1 µM |  |  |  | 
CS(=O)(=O)c1ccc(-c2ccc(N)c(C(=O)Nc3cnccc3N3CCC[C@H](N)C3)n2)cc1 [Example 319, 3-amino-6-(4-methane-sulfonyl-phenyl)-pyridine-2-carboxylic acid ((S)-3-amino-3,4,5,6-tetrahydro-2H-[1,4′]bi-pyridinyl-3′-yl)-amide] | < 1 µM | 1 to 5 µM | < 1 µM | < 1 µM |  |  |  | 
Nc1ccc(-c2ccncc2)nc1C(=O)Nc1cnccc1N1CCC[C@H](N)C1 [Example 415, 5-amino-[2,4′]bipyridinyl-6-carboxylic acid ((S)-3-amino-3,4,5,6-tetrahydro-2H-[1,4′]bi-pyridinyl-3′-yl)-amide] | < 1 µM | < 1 µM | < 1 µM | < 1 µM |  |  |  | 
Nc1ncc(-c2ccc(O)cc2)nc1C(=O)Nc1cnccc1N1CCCC(N)C1 (centres unmarked) [Example 358, 3-amino-6-(4-hydroxy-phenyl)-pyrazine-2-carboxylic acid (3-amino-3,4,5,6-tetra-hydro-2H-[1,4′]bipyridinyl-3′-yl)-amide] | < 1 µM | < 1 µM | < 1 µM | < 1 µM |  |  |  | 
Nc1ccc(-c2cccnc2F)nc1C(=O)Nc1cnccc1N1CCC[C@H](N)C1 [Example 419, 5-amino-2′-fluoro-[2,3′]bi-pyridinyl-6-carboxylic acid ((S)-3-amino-3,4,5,6-tetrahydro-2H-[1,4′]bipyridinyl-3′-yl)-amide] | < 1 µM | 1 to 5 µM | < 1 µM | < 1 µM |  |  |  | 
Nc1ccc(-c2cccnc2Cl)nc1C(=O)Nc1cnccc1N1CCC[C@H](N)C1 [Example 331, 5-amino-2′-chloro-[2,3′]bi-pyridinyl-6-carboxylic acid ((S)-3-amino-3,4,5,6-tetra-hydro-2H-[1,4′]bipyridinyl-3′-yl)-amide] | < 1 µM | 1 to 5 µM | < 1 µM | < 1 µM |  |  |  | 
Nc1ncc(Br)nc1C(=O)Nc1cnccc1N1CCCC(N)C1 (centres unmarked) [Example 181, 3-amino-N-[4-(3-aminopiperidin-1-yl)pyridin-3-yl]-6-bromopyrazine-2-carboxamide] | < 1 µM | < 1 µM | < 1 µM | < 1 µM |  |  |  | 
Nc1ccc(-c2cccnc2)nc1C(=O)Nc1cnccc1N1CCC[C@H](N)C1 [Example 414, 5-amino-[2,3′]bipyridinyl-6-carboxylic acid ((S)-3-amino-3,4,5,6-tetrahydro-2H-[1,4′]bi-pyridinyl-3′-yl)-amide] | < 1 µM | 1 to 5 µM | < 1 µM | < 1 µM |  |  |  | 
Cc1ccc(S(=O)(=O)NC(C)(C)C)cc1-c1ccc(N)c(C(=O)Nc2cnccc2N2CCC[C@H](N)C2)n1 [Example 335, 3-amino-6-(5-tert-butyl-sulfamoyl-2-methyl-phenyl)-pyridine-2-carboxylic acid ((S)-3-amino-3,4,5,6-tetra-hydro-2H-[1,4′]bipyridinyl-3′-yl)-amide] | < 1 µM | 5 to 10 µM | < 1 µM | < 1 µM |  |  |  | 
CCN(CC)S(=O)(=O)c1ccc(C)c(-c2ccc(N)c(C(=O)Nc3cnccc3N3CCC[C@H](N)C3)n2)c1 [Example 329, 3-amino-6-(5-diethyl-sulfamoyl-2-methyl-phenyl)-pyridine-2-carboxylic acid ((S)-3-amino-3,4,5,6-tetra-hydro-2H-[1,4′]bipyridinyl-3′-yl)-amide] | < 1 µM | 5 to 10 µM | < 1 µM | < 1 µM |  |  |  | 
CCCNC(=O)c1ccc(F)c(-c2ccc(N)c(C(=O)Nc3cnccc3N3CCC[C@H](N)C3)n2)c1 [Example 326, 3-amino-6-(2-fluoro-5-propyl-carbamoyl-phenyl)-pyridine-2-carboxylic acid ((S)-3-amino-3,4,5,6-tetrahydro-2H-[1,4′]bipyridinyl-3′-yl)-amide] | < 1 µM | 1 to 5 µM | < 1 µM | < 1 µM |  |  |  | 
Nc1ccc(-c2cc(C(=O)NC3CCCCC3)ccc2F)nc1C(=O)Nc1cnccc1N1CCC[C@H](N)C1 [Example 324, 3-amino-6-(5-cyclohexyl-carbamoyl-2-fluoro-phenyl)-pyridine-2-carboxylic acid ((S)-3-amino-3,4,5,6-tetra-hydro-2H-[1,4′]bipyridinyl-3′-yl)-amide] | < 1 µM | < 1 µM | < 1 µM | < 1 µM |  |  |  | 
Cc1ccccc1-c1cnc(N)c(C(=O)Nc2[nH]c(=O)ncc2N2CCCCC2)n1 [Example 591, 3-amino-6-o-tolyl-pyrazine-2-carboxylic acid (2-oxo-5-piperidin-1-yl-2,3-dihydro-pyrimidin-4-yl)-amide] |  |  |  |  | < 1 µM | 5 to 10 µM | < 1 µM | < 1 µM
Cc1cc(Cl)ccc1-c1ccc(N)c(C(=O)Nc2cnccc2N2CCC[C@H](N)C2)n1 [Example 429, 3-amino-6-(4-chloro-2-methyl-phenyl)-pyridine-2-carboxylic acid ((S)-3-amino-3,4,5,6-tetra-hydro-2H-[1,4′]bipyridinyl-3′-yl)-amide] | < 1 µM | 5 to 10 µM | < 1 µM | < 1 µM |  |  |  | 
Nc1cc(-c2ccc(N)c(C(=O)Nc3cnccc3N3CCC[C@H](N)C3)n2)ccn1 [Example 412, 5,2′-diamino-[2,4′]bipyridinyl-6-carboxylic acid ((S)-3-amino-3,4,5,6-tetrahydro-2H-[1,4′]bi-pyridinyl-3′-yl)-amide] | < 1 µM | 5 to 10 µM | < 1 µM | < 1 µM |  |  |  | 
Cc1cccc(C)c1-c1ccc(N)c(C(=O)Nc2cnccc2N2CCC[C@H](N)C2)n1 [Example 426, 3-amino-6-(2,6-dimethyl-phenyl)-pyridine-2-carboxylic acid ((S)-3-amino-3,4,5,6-tetra-hydro-2H-[1,4′]bipyridinyl-3′-yl)-amideQ] | < 1 µM | 5 to 10 µM | < 1 µM | < 1 µM |  |  |  | 
Cc1ccc(-c2ccc(N)c(C(=O)Nc3cnccc3N3CCC[C@H](N)C3)n2)c(F)c1 [Example 432, 3-amino-6-(2-fluoro-4-methyl-phenyl)-pyridine-2-carboxylic acid ((S)-3-amino-3,4,5,6-tetra-hydro-2H-[1,4′]bipyridinyl-3′-yl)-amide] |  | 1 to 5 µM |  |  |  |  |  | 
